Series [1] concerns Candida albicans. As to the kind of experiment: Antifungal activity against fluconazole/ITC-resistant Candida albicans ATCC 10231 measured after 48 hrs by CLSI M27-A3 protocol based method. Type of series: functional. Conditions: ATCC 10231, 48 h.
The next series concerns Aspergillus terreus. Nature of the series: Antifungal activity against Aspergillus terreus ATCC MYA-3633 measured after 48 hrs by CLSI M38-A2 protocol based method. In kind it is functional. Conditions: ATCC MYA-3633, 48 h.
The subject of series [2] is Candida albicans. Nature of the series: Antibiofilm activity against fluconazole/ITC-resistant Candida albicans ATCC 64124 assessed as reduction in sessile growth after 24 hrs by XTT assay. The note with it: ATCC 64124, 24 h. In kind it is functional. For orientation: Formazan colour is commonly taken as a measure of viable cells.
Series [3] in a line: Hemolytic activity in mouse RBC at 3.9 ug/ml after 1 hr relative to control. In kind it is ADME, cell-based, Erythrocyte. Conditions: red blood cells (erythrocytes), read-out: Activity.
The test system of a further series is Aspergillus flavus. As to the kind of experiment: Antifungal activity against Aspergillus flavus ATCC MYA-3631 measured after 48 hrs by CLSI M38-A2 protocol based method. The note with it: ATCC MYA-3631, 48 h. Type of series: functional.
For series [4], the system named is Candida albicans. Nature of the series: Fungicidal activity against fluconazole/ITC-resistant Candida albicans ATCC 10231 assessed as reduction in fungal growth at 0.5 to 2 times MIC incubated for 24 hrs followed by replating on PDA plates measured after 48 hrs Time-Kill assay. In kind it is functional, organism-based.
Series [5] in a line: Hemolytic activity in mouse RBC at […] after 1 hr relative to control. Note: tested at 0.48 µg/mL. Type of series: ADME, cell-based, Erythrocyte. Conditions: red blood cells (erythrocytes), read-out: Activity.
Series [6] concerns Candida albicans. As to the kind of experiment: Antifungal activity against fluconazole/ITC-resistant Candida albicans ATCC 64124 measured after 48 hrs by CLSI M27-A3 protocol based method. The note with it: ATCC 64124, 48 h. Type of series: functional.
A short description of series [7]: Hemolytic activity in mouse RBC at […] ug/ml after 1 hr relative to control. Conditions: red blood cells (erythrocytes), read-out: Activity. Type of series: ADME, cell-based, Erythrocyte.
For another series, the system named is Aspergillus nidulans. Nature of the series: Antifungal activity against Aspergillus nidulans ATCC 38163 measured after 48 hrs by CLSI M38-A2 protocol based method. Type of series: functional. Conditions: ATCC 38163, 48 h.
Series [8] deals with Candida albicans. Nature of the series: Antifungal activity against fluconazole/ITC-resistant Candida albicans ATCC 90819 measured after 48 hrs by CLSI M27-A3 protocol based method. Type of series: functional. The note with it: ATCC 90819, 48 h.
The nature of series [9]: Hemolytic activity in mouse RBC at 7.8 ug/ml after 1 hr relative to control. Type of series: ADME, cell-based, Erythrocyte. The note with it: red blood cells (erythrocytes), read-out: Activity.
Series [10] has as its system Candida albicans. Nature of the series: Antifungal activity against fluconazole/ITC-resistant Candida albicans ATCC MYA-1237 measured after 48 hrs by CLSI M27-A3 protocol based method. In kind it is functional. Conditions: ATCC MYA-1237, 48 h.
Series [11] concerns Candida albicans. As to the kind of experiment: Antifungal activity against fluconazole/ITC-susceptible Candida albicans ATCC MYA-2310 measured after 48 hrs by CLSI M27-A3 protocol based method. Conditions: ATCC MYA-2310, 48 h. Type of series: functional.
The subject of the next series is Candida parapsilosis. Nature of the series: Antifungal activity against Candida parapsilosis ATCC 22019 measured after 48 hrs by CLSI M27-A3 protocol based method. Type of series: functional. The note with it: Lodderomyces parapsilosis, ATCC 22019, 48 h.
Series [12] is described as follows: Hemolytic activity in mouse RBC at 31.3 ug/ml after 1 hr relative to control. In kind it is ADME, cell-based, Erythrocyte. The note with it: red blood cells (erythrocytes), read-out: Activity.
For series [13], the system named is Candida albicans. As to the kind of experiment: Antibiofilm activity against fluconazole/ITC-resistant Candida albicans ATCC 10231 assessed as reduction in sessile growth after 24 hrs by XTT assay. In kind it is functional. Conditions: ATCC 10231, 24 h.
Series [14] in a line: Hemolytic activity in mouse RBC at 1.95 ug/ml after 1 hr relative to control. Type of series: ADME, cell-based, Erythrocyte. The note with it: red blood cells (erythrocytes), read-out: Activity.

Molecules are shown by their SMILES. In brackets after ≈: the same amount, converted by molar mass. Activity calls are given as the source filed them. Bounds are passed on as bounds.

By MIC is commonly meant the smallest concentration in the dilution series that meets the test's criterion for growth inhibition. The low end stands for inhibition by little substance, the high end for a need for much substance. For the compound `C[C@@H](c1ncncc1F)[C@](O)(Cn1cncn1)c1ccc(F)cc1F` [VORICONAZOLE], the minimal inhibitory concentration (MIC) with Candida albicans [1] is 0.975 µg/mL (≈ 2.79 µM); against Aspergillus terreus, more than 31.3 µg/mL; against Aspergillus flavus, more than 31.3 µg/mL; in the series with Candida albicans [6], 0.24 µg/mL (≈ 0.687 µM); with Aspergillus nidulans, more than 31.3 µg/mL; against Candida albicans [8], 0.12 µg/mL (≈ 0.344 µM). Further, the MIC amounted to 0.24 µg/mL (≈ 0.687 µM) in the series with Candida albicans [10], 0.12 µg/mL (≈ 0.344 µM) in the series with Candida albicans [11] and 1.95 µg/mL (≈ 5.58 µM) against Candida parapsilosis. The MIC50 in the series with Candida albicans [2] and with Candida albicans [13] was 16 µg/mL (≈ 45.8 µM) in each case. Moreover, the MIC90 in the series with Candida albicans [2] and with Candida albicans [13] was more than 32 µg/mL in each case. The hemolysis at 1 h, 3.9 ug/ml in [3] was 7.5%. In addition, the result with Candida albicans [4] was Active. Also, in series [5], the hemolysis at 1 h, […] turned out to be 8.7%. In addition, in series [7] (at 15.6 µg/mL), the hemolysis at 1 h, 15.6 ug/ml was determined as 2.8%. For the same compound, the hemolysis at 1 h, 0.975 ug/ml in series [7] was determined as 10.3%. Moreover, the hemolysis at 1 h, 7.8 ug/ml in series [9] worked out at 11.4%. In series [12], the hemolysis at 1 h, 31.3 ug/ml stood at 83%. For the same compound, the hemolysis at 1 h, 1.95 ug/ml in series [14] turned out to be 6.3%.
